From ChEMBL document CHEMBL1201862, “PubChem BioAssay data set” (2004)
Calls of active or inactive are those of the source.

Columns and labels:
[1] = target: T1, Carboxy-terminal domain RNA polymerase II polypeptide A small phosphatase 1 (Homo sapiens, UniProt Q9GZU7); assay: CTDSP1 inhibitors, concentration-response, biochemical, absorbance readout, ultra-high-throughput screen actives (AID 540297); assay type: functional
T1 sequence (Q9GZU7 whole entry): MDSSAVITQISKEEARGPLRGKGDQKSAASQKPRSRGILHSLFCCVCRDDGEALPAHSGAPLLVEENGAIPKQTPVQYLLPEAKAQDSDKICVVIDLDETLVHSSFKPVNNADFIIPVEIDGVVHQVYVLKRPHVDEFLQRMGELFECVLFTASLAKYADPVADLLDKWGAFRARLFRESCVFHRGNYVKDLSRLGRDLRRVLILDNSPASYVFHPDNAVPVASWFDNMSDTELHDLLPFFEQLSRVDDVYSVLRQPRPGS

Genome polyprotein = Genome polyprotein (dengue virus type 2, UniProt P29990); assay: flavivirus cap methylation enzyme inhibition – biochemical, confirmation dose response, primary screen (AID 588689); assay type: functional
[2] = intracellular Trypanosoma cruzi inhibitors in host cells – cell-based, plate reader, cherry-pick samples, set 3, dose response (AID 651818); assay type: functional;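 also: compounds incubated with infected cells for about four days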
[3] = target: T2, Corticotropin-releasing factor receptor 2/Corticotropin-releasing factor-binding protein (Homo sapiens, UniProt P24387+Q13324); assay: activators of CRF receptor 2 with binding protein – uHTS hits, confirmation (AID 602473); assay type: functional; settings: read-out: EC50_Mean
T2 sequence (Q13324 whole entry): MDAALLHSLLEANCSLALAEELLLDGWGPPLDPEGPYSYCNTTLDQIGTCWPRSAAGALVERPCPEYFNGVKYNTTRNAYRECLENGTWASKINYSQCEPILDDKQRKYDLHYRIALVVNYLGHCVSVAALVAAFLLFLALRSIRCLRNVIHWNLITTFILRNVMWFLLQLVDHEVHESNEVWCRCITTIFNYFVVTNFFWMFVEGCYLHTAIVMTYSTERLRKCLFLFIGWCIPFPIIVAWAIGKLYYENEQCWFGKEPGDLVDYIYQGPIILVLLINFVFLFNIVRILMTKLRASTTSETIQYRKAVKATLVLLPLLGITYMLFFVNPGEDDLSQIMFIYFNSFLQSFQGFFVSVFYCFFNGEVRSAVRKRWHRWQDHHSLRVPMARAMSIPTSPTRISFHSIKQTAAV
T2 sequence (P24387 whole entry): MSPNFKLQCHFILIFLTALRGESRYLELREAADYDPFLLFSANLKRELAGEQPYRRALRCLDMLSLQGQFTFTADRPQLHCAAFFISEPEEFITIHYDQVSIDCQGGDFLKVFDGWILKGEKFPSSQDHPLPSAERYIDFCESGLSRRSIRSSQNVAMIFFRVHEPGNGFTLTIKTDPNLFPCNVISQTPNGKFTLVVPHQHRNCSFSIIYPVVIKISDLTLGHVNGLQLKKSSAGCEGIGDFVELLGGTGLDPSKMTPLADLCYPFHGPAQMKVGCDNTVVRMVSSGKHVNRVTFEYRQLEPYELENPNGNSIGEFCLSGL

[4] = target: T2, Corticotropin-releasing factor receptor 2/Corticotropin-releasing factor-binding protein; assay: Dose Response confirmation of uHTS hits for small molecule antagonists of the CRF-binding protein and CRF-R2 receptor complex.; assay type: functional; settings: read-out: IC50_Mean
[5] = blockers of CRF-binding protein–CRF-R2 complex – cell-based, uHTS hits, 384-well, dose response (AID 651639); assay type: functional, Homo sapiens; settings: read-out: IC50_Mean
Large T antigen = Large T antigen (Simian virus 40, UniProt P03070); assay type: functional, Betapolyomavirus macacae;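 also: Confirmatory-stage PubChem screen for compounds that inhibit SV40 T antigen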
cells = assay type: functional
Prothrombin = Prothrombin (Homo sapiens, UniProt P00734); assay: Thrombin 1536 HTS Dose Response Confirmation. [Related pubchem assays: 1046 (Thrombin 1536 HTS; hits were confirmed in this assay)]; assay type: functional
Escherichia coli = assay: microbe, parasite or virus in culture
[6] = tested on: Streptococcus sp. 'group A'; assay: Streptococcus pyogenes SK(-)GAS viability under kanamycin – luminescence, BacTiterGlo, confirmation, counter-screen for streptokinase expression inhibitor project, dose response (AID 1900); assay type: functional, organism-based
Streptococcus = assay: GAS UMAA2166 growth inhibition – luminescence, BacTiterGlo, counter-screen for streptokinase expression inhibitor project, dose response (AID 1915); assay type: functional, organism-based;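 also: potency for reduction of bacterial viability or growth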
[7] = target: T3, High affinity choline transporter 1 (Homo sapiens, UniProt Q9GZV3); assay: human choline transporter blockers, potency – cell-based, 5-point CRC, membrane potential dye, dose response (AID 504840); assay type: functional
T3 sequence (Q9GZV3 whole entry): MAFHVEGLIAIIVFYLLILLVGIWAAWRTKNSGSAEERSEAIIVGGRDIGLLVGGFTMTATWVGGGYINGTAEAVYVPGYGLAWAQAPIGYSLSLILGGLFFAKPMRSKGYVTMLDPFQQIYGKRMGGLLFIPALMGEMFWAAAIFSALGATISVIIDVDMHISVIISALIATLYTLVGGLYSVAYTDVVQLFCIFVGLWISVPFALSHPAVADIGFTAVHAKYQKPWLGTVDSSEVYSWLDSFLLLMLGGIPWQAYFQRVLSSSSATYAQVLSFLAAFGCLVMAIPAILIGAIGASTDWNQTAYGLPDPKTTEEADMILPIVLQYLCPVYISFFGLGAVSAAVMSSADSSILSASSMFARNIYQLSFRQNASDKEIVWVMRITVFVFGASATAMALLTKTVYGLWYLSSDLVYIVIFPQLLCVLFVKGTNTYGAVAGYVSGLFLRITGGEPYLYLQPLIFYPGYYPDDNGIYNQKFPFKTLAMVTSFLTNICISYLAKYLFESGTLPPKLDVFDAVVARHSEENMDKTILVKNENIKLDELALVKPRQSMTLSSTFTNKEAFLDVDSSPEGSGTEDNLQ

Cytochrome P450 2C9 = Cytochrome P450 2C9 (Homo sapiens, UniProt P11712)
[8] = viability of PTEN-deleted HCT116 cells – cell-based, HCT116 PTEN knockout, dose response (AID 1047); assay type: functional;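 also: HCT116 colon tumor cells with PTEN knocked out; cells exposed to compound for 60 hours before readout; potency for loss of cell viability measured by luminescence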
[9] = viability of HCT116 lacking mutant beta-catenin – cell-based, human colon tumor, dose response (AID 1045); assay type: functional;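 also: HCT116 colon tumor cells with beta catenin knocked out; cells exposed to compound for 60 hours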

Sequence of Genome polyprotein (P29990 2492-3391 limits assumed): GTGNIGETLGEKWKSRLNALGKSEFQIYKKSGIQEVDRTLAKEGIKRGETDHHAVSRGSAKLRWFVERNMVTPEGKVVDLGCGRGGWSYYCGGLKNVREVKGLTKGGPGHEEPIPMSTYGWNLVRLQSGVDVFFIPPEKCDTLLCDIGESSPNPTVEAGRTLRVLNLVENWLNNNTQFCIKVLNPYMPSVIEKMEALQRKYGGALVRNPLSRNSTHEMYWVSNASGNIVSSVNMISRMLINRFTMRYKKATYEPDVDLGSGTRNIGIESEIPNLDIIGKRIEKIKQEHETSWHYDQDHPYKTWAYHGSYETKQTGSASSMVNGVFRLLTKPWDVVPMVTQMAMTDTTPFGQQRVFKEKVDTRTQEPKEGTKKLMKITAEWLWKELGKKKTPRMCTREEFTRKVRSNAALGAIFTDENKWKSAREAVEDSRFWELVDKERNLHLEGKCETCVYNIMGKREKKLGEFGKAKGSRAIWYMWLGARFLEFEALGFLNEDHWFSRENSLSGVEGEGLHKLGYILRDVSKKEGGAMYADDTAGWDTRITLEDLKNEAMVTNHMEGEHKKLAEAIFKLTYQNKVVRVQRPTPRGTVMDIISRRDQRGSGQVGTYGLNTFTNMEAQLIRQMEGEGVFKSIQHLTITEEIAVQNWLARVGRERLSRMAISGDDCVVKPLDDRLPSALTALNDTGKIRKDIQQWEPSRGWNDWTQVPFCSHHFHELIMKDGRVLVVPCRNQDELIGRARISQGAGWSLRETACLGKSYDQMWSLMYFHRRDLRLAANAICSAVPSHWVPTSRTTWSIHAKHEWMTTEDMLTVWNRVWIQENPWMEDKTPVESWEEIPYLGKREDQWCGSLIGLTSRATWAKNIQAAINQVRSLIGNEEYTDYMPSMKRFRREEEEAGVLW
Sequence of Cytochrome P450 2C9 (P11712 whole entry): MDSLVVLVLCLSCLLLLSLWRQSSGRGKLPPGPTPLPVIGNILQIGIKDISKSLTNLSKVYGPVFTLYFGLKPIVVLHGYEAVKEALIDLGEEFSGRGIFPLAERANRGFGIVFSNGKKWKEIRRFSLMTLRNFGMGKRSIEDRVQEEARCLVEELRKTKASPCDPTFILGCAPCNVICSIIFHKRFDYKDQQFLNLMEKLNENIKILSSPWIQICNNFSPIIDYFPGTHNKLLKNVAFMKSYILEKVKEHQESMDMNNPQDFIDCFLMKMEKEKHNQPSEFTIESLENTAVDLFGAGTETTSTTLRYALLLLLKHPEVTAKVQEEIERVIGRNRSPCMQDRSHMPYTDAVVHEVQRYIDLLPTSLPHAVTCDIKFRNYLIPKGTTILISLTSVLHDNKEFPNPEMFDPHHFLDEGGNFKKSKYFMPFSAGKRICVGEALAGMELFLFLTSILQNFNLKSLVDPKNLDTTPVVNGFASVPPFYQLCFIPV
Sequence of Large T antigen (P03070 whole entry): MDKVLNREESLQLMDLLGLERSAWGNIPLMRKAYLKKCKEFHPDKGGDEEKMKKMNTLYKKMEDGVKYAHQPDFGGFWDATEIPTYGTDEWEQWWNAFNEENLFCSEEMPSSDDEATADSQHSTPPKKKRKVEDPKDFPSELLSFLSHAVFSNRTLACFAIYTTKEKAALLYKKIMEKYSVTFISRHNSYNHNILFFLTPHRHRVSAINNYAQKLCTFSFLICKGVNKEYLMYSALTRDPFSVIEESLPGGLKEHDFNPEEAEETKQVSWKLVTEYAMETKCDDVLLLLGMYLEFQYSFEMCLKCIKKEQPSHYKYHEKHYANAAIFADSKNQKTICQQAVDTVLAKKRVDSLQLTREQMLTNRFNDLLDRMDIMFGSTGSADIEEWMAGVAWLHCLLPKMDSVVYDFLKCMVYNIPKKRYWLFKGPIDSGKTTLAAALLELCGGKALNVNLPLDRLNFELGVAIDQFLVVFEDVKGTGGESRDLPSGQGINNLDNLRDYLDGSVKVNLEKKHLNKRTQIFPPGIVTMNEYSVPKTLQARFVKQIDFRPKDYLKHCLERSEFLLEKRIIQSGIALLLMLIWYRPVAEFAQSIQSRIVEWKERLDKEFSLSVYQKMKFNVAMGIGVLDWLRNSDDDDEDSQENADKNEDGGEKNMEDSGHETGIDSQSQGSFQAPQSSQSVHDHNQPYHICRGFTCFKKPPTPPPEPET

For `O=C(CSc1nnc(-c2ccncc2)n1-c1ccc(F)cc1)NC(=O)NCc1ccco1`, the IC50 [1] was 8.38 µM (active).

With `COC(=O)c1ccc(N2NC(=O)/C(=C/c3cc(OC)c(OC)c(OC)c3)C2=O)cc1` the IC50 (Genome polyprotein) was 46.6 µM (active).

In the case of `C[C@@H]1CN([C@@H](C)CO)C(=O)Cc2cc(NC(=O)Nc3cccc4ccccc34)ccc2O[C@@H]1CN(C)Cc1ccc(C(F)(F)F)cc1`, the AC50 [2] was 3.08 µM (active).

With `C[C@@H]1CN([C@@H](C)CO)C(=O)Cc2cc(NC(=O)Nc3ccc(C(F)(F)F)cc3)ccc2O[C@@H]1CN(C)Cc1ccc(C(F)(F)F)cc1` the AC50 [2] was 3.26 µM (active).

For `CCOC(=O)Cc1csc(NC(=S)NC(=O)c2ccc([N+](=O)[O-])cc2)n1`, the EC50 [3] was 18 µM (active), the IC50 [4] was 16.7 µM (active) and the IC50 [5] was > 20 µM (inactive).

In the case of `COc1cc(/C=C2/C(=O)NN(c3cccc(C)c3)C2=O)ccc1OC(=O)c1ccco1`, the IC50 (Genome polyprotein) was 64 µM (active), the IC50 (Large T antigen) was 32.1 µM (active) and the IC50 (cells) was 19.9 µM (active).

With `CCc1cccc(CC)c1NC(=O)c1cccc(N)c1` the IC50 (Prothrombin) was > 50 µM (not active).

With `Cc1cc([N+](=O)[O-])ccc1NC1CCCC1` the EC50 [3] was > 53 µM (inactive), the IC50 [4] was 7.24 µM (active) and the IC50 [5] was 12.8 µM (active).

With `CC[C@H]1OC(=O)[C@H](C)[C@@H](O[C@H]2C[C@@](C)(OC)[C@@H](O)[C@H](C)O2)[C@H](C)[C@@H](O[C@@H]2O[C@H](C)C[C@H](N(C)C)[C@H]2O)[C@](C)(OC)C[C@@H](C)C(=O)[C@H](C)[C@@H](O)[C@]1(C)O` [CLARITHROMYCIN] the AC50 (Escherichia coli) was 23.1 µM (active), the EC50 [6] was < 0.06 µM (active) and the EC50 (Streptococcus) was < 0.06 µM (active).

For `C[C@@H]1CCCCO[C@@H](CN(C)Cc2ccc(Cl)c(Cl)c2)[C@@H](C)CN([C@H](C)CO)C(=O)c2cc(NS(=O)(=O)c3ccc(F)cc3)ccc2O1`, the AC50 [2] was 4.38 µM (active).

In the case of `Cc1ncoc1C(=O)Nc1ccc(Oc2ccccc2)cc1`, the IC50 [7] was 13.2 µM (active).

In the case of `C[C@@H]1CN([C@H](C)CO)C(=O)c2cccc(NC(=O)Nc3ccc4c(c3)OCO4)c2O[C@H]1CN(C)Cc1ccc(C(=O)Nc2ccccc2N)cc1`, the AC50 [2] was 0.743 µM (active).

For `Nc1nnc(SCc2cc3c(cc2Cl)OCO3)s1`, the EC50 [3] was > 53 µM (inactive), the IC50 [4] was 22.5 µM (active) and the IC50 [5] was > 20 µM (inactive).

In the case of `COc1ccc(NC(=O)Nc2ccc3c(c2)CC(=O)N([C@@H](C)CO)C[C@@H](C)[C@@H](CN(C)Cc2ccc(C(=O)Nc4ccccc4N)cc2)O3)cc1`, the AC50 [2] was 2.51 µM (active).

With `COc1cc2c(cc1NC(=O)COC(=O)[C@@H](NC(=O)c1ccccc1)C(C)C)oc1ccccc12` the AC50 (Escherichia coli) was 33.8 µM (active).

For `O=C(O)c1ccc(Cl)c(S(=O)(=O)Nc2ccccc2C(=O)Nc2ccc(Cl)cc2)c1`, the IC50 (Genome polyprotein) was 34 µM (active).

For `CCCC(C(=O)O)N1C(=O)/C(=C2\C(=O)N(C)c3ccccc32)SC1=S` (stereo unspecified), the IC50 (Genome polyprotein) was 30.4 µM (active).

In the case of `CCCC(NC(=O)Cc1c(C)c2cc3c(C)c(C)oc3c(C)c2oc1=O)C(=O)N[C@@H](Cc1ccccc1)C(=O)O` (stereo partly specified), the IC50 [1] was 3.57 µM (active).

In the case of `Cc1ccccc1-c1nc(CN2CCC(C(=O)O)CC2)c(C)o1`, the AC50 (Escherichia coli) was 20.8 µM (active).

With `CCCN(CCC)c1nc(O)nc(N(CCC)CCC)n1` the IC50 [7] was 3.63 µM (active).

For `O=C(Nc1cccc([N+](=O)[O-])c1)Nc1cccc([N+](=O)[O-])c1`, the IC50 [1] was 8.46 µM (active).

In the case of `Cc1ccc(OCCSC2=NN2c2cc(C)nc(N)n2)cc1`, the IC50 [7] was 14.8 µM (active).

With `Cc1cccc(NC(=S)NC23CN4CN(CN(C4)C2)C3)c1` the IC50 (Prothrombin) was > 50 µM (not active).

With `CSc1nc(C)c(C(=O)C[n+]2ccccc2C)cc1C#N` the EC50 [3] was > 53 µM (inactive), the IC50 [4] was < 0.368 µM (active) and the IC50 [5] was > 20 µM (inactive).

With `COc1ccccc1CCNC(=O)CCn1nc(C)c2c(C)n(-c3ccccc3)nc2c1=O` the EC50 [3] was > 53 µM (inactive), the IC50 [4] was 41.1 µM (active) and the IC50 [5] was > 20 µM (inactive).

With `CCn1cc(C(=O)O)c(=O)c2cc(F)c(N3CCNCC3)nc21` [ENOXACIN] the AC50 (Escherichia coli) was 1.07 µM (active) and the AC50 (Cytochrome P450 2C9) was “inconclusive”.

With `Cc1cc(Oc2nc3c(C)cccn3c(=O)c2/C=C(\C#N)S(=O)(=O)c2ccc(Cl)cc2)ccc1Cl` the AC50 (Escherichia coli) was 28.9 µM (active), the EC50 [8] was 7.18 µM (active) and the EC50 [9] was 6.7 µM (active).

With `O=C(CCS(=O)(=O)c1ccc(Br)cc1)NC1CCCCCC1` the IC50 [1] was 7.42 µM (active).

For `CC(C)c1ccc(NC(=O)COc2ccccn2)cc1`, the IC50 (Prothrombin) was > 50 µM (not active).
